According to PMC6606611, “A comparative analysis of secreted protein disulfide isomerases from the tropical co-endemic parasites Schistosoma mansoni and Leishmania major” (Scientific Reports, 2019):

How the values were obtained:
LmPDI = molecular target: T1, LmPDI (Leishmania major, UniProt Q8I8E1); test: fluorimetric di-eosin-GSSG disulfide reductase assay, […] protein; assay type: biochemical
T1 construct: gene pdi; recombinant, N-terminal cleavable His-FLAG tag

HsPDIA3/ERp57 = molecular target: T2, HsPDIA3/ERp57 (Homo sapiens, UniProt P30101); test: biochemical
T2 construct: gene PDIA3

SmERp60 = molecular target: T3, SmERp60 (Schistosoma mansoni, UniProt P38658); test: fluorimetric di-eosin-GSSG disulfide reductase assay, […] protein; assay type: biochemical
T3 construct: recombinant, GST tag cleaved
T3 sequence (P38658 15-484): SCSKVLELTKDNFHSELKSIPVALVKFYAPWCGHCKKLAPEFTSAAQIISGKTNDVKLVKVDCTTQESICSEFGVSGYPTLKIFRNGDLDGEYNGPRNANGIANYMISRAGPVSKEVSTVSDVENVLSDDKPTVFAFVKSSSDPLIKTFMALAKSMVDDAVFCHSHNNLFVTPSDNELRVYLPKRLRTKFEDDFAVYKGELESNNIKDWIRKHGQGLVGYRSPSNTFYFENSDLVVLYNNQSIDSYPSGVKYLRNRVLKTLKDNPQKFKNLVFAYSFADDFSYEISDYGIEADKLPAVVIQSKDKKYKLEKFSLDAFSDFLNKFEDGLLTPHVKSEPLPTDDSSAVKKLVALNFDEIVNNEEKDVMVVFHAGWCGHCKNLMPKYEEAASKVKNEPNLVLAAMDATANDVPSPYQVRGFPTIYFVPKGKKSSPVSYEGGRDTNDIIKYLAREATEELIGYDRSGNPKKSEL

T1 sequence (Q8I8E1 entry or part of it): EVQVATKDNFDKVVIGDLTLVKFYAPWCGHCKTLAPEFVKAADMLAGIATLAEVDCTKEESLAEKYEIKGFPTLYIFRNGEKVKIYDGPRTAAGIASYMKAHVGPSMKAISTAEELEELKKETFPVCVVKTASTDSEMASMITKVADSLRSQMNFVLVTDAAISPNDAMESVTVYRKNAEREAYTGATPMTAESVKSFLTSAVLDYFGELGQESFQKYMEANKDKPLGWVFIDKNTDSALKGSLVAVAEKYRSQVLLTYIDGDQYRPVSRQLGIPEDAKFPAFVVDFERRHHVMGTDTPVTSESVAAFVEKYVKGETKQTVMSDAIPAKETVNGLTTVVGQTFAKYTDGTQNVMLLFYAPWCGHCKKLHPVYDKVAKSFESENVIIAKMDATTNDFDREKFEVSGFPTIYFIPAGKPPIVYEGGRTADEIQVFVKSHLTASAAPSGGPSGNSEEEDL
T2 sequence (P30101 25-505): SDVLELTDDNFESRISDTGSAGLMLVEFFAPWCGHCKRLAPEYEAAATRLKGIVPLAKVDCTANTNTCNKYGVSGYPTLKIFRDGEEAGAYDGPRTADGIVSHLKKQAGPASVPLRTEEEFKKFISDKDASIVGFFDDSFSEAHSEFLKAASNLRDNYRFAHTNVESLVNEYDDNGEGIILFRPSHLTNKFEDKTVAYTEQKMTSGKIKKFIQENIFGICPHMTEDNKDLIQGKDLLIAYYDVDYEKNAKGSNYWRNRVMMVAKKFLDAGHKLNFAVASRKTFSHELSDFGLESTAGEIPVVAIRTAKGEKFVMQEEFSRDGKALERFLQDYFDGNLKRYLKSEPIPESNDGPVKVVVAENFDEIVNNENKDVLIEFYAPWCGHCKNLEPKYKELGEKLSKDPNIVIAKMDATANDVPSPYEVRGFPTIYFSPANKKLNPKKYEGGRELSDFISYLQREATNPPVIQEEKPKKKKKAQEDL

| IC50 (SmERp60) | Structure (SMILES) | IC50 (LmPDI) | IC50 (HsPDIA3/ERp57) |
| --- | --- | --- | --- |
| – | O=C1O[C@H]2[C@@H]3OC(=O)c4cc(O)c(O)c(O)c4-c4c(O)c(O)c5oc(=O)c6c(c(O)c(O)c7oc(=O)c4c5c76)-c4c(cc(O)c(O)c4O)C(=O)OC[C@H]3OC(O)[C@@H]2OC(=O)c2cc(O)c(O)c(O)c2-c2c1cc(O)c(O)c2O (mixture of isomers) [punicalagin] | 7300 nM | 500 nM |
| 750 nM | COc1cc([C@H]2Oc3cc([C@H]4Oc5cc(O)cc(O)c5C(=O)[C@@H]4O)ccc3O[C@@H]2CO)ccc1O [silibinin A] | – | – |
